Laboratory results as given in patent publication US9994548B2, “Phenyl-substituted nicotinic ligands, and methods of use thereof” (Georgetown University, priority 2011, dated 2018).
“Also recorded” adds a separate entry of the source.

Assays:
[1] = test system: nicotine self-administration; experiment: Nicotine self-administration in rats; type: in vivo, rat
Description: The studies were conducted in accordance with the regulations outlined by the Duke University Animal Care and Use Committee. The rats housed in approved standard laboratory conditions in a Duke University vivarium facility near the testing room to minimize stress induced by transporting the rats. The rats were kept on a 12:12 reverse day/night cycle, so that they were in their active phase during behavioral testing. The rats in the drug iv self-administration studies were singly housed to prevent them from damaging each other's catheters. The rats in the locomotor activity studies were housed in groups of 2-3. All rats were allowed access to water at all times; the rats in the nicotine-self-administration study were fed daily approximately 30 minutes after completing the sessions while those in the locomotor activity study had continuous access to food.
VMY-2-95 was injected s.c. 10 minutes before testing in a volume of 1 mL/kg of saline. The doses (0, 0.3, 1 and 3 mg/kg) were given in a counterbalanced order with at least two days between successive injections.
Each infusion was immediately followed by a one-minute period in which the cue lights went out, the house light came on and responses were recorded but not reinforced.
After food training, the animals were surgically implanted with jugular catheters. […] Alpha of p<0.05 (two-tailed) was used as the threshold for significance.

α7 nAChR = biological target: T1, α7 nAChR (Rattus norvegicus, UniProt Q05941); experiment: [3H]-epibatidine radioligand competition binding assay; conditions: competition against [3H]-epibatidine
T1 construct: expressed in transfected cells
Description: (§1) Stably transfected cell lines, tissue culture conditions, membrane preparation procedures and binding assays were described previously. Briefly, cultured cells at >80% confluence were removed from their flasks (80 cm^2) with a disposable cell scraper and placed in 10 mL of 50 mM Tris.HCl buffer (pH 7.4, 4° C.). The cell suspension was centrifuged at 10,000×g for 5 min and the pellet was collected. The cell pellet was then homogenized in 10 mL buffer with a polytron homogenizer and centrifuged at 36,000 g for 10 min at 4° C. The membrane pellet was resuspended in fresh buffer, and aliquots of the membrane preparation were used for binding assays. The concentration of [^3H]-epibatidine used was ˜500 pM for competition binding assays. […] Bound and free ligands were separated by vacuum filtration through Whatman GF/C filters treated with 0.5% polyethylenimine. The filter-retained radioactivity was measured by liquid scintillation counting. Specific binding was defined as the difference between total binding and nonspecific binding. Data from competition binding assays were analyzed using Prism 5 (GraphPad Software, San Diego, Calif.).
(§2) The in vitro binding affinities of the new ligands were measured for defined receptor subtypes (α2β2, α2β4, α3β2, α3β4, α4β2, α4β4, α6β2, α6β4, and α7) expressed in stably transfected cell lines. [^3H]Epibatidine ([^3H]EB) binds to the agonist recognition site of all of the defined receptor subtypes with high affinities. Rat forebrain homogenates were included to allow comparison between the heterologous and native α4β2 and α7 nAChRs. See FIG. 18 for binding affinity values (Ki) of the ligands at the three major nAChR subtypes (α3β4, […], and α7).
(§3) The binding affinities of all compounds synthesized for the receptor subtypes were examined in binding competition studies against [^3H]-epibatidine.

α3β4 nAChR = biological target: T2, α3β4 nAChR (Rattus norvegicus, UniProt P04757+P12392); experiment: as above; conditions: competition against [3H]-epibatidine, stably transfected cell membranes; read-out: Ki α3β4
T2 construct: expressed in transfected cells; host or cells: HEK 293 (KXα3β4R2)
Description: as §1, §2, §3

α4β2 nAChR = biological target: T3, α4β2 nAChR (Rattus norvegicus, UniProt P09483+P12390); experiment: as above; conditions: competition against [3H]-epibatidine, stably transfected cell membranes; read-out: Ki α4β2
T3 construct: expressed in transfected cells
Description: as §1, §2, §3

[2] = test system: 41 other targets, including many CNS receptors and transporters; experiment: NIMH PDSP binding assays for targets other than nAChRs
Description: (§4) All binding assays for targets other than nAChRs were performed by the National Institute of Mental Health's Psychoactive Drug Screening Program (PDSP) supported by NIMH grant HHSN-271-2008-00025-C(PI: Bryan Roth). For experimental details (Ki determinations, receptor binding profiles, functional data, MDR1 data, etc. as appropriate) refer to the PDSP web site http://pdsp.med.unc.edu/.
To determine affinities of the lead compound, VMY-2-95, for targets other than neuronal nAChRs, we tested VMY-2-95 in binding assays using 41 other targets, including many CNS receptors and transporters. […] The Ki values of VMY-2-95 at these 9 targets were determined by performing secondary binding assays using a series of concentrations of VMY-2-95. […] Furthermore, the binding affinity of VMY-2-95 for α4β2 nAChRs is at least 3,000 times higher than that for any of those 9 targets.

5-HT3 receptors = biological target: T4, 5-HT3 receptors (Homo sapiens, UniProt P46098); experiment: NIMH PDSP primary binding assay; conditions: 10 μM
T4 sequence (P46098 24-478): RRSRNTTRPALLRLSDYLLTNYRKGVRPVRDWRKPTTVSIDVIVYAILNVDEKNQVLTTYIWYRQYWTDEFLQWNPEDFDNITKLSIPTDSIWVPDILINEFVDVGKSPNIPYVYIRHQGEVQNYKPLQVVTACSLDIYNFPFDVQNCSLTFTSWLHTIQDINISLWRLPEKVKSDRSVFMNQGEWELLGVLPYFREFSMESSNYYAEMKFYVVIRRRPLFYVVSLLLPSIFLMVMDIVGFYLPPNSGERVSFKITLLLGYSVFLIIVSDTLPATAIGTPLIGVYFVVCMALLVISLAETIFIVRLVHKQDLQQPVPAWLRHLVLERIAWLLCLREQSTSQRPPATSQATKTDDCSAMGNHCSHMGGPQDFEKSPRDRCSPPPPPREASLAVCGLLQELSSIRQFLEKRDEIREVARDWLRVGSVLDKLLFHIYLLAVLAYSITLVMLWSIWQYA
Description: as §4
The compound either is not a “hit” in primary binding assays, or showing at least 3,000-fold lower binding affinities than that for α4β2 nAChRs in secondary binding assays (FIG. 19,).

[3] = 10 μM, 41 targets, primary binding assays

Question: `C(#Cc1cncc(OC[C@@H]2CCN2)c1)c1ccccc1` [VMY-2-95, (S)-3-(azetidin-2-ylmethoxy)-5-(phenylethynyl)pyridine] was tested. Which “nicotine self-administration (number of nicotine infusions) vs saline vehicle” value ([1]; 3 mg/kg s.c., 10 min before session, p<0.025) did it give?
Answer: The value was “significantly reduces; also recorded: significant (p<0.025) decrease”.

Question: And the “intravenous nicotine self-administration, overall dose effect” value ([1]; 0.3, 1, 3 mg/kg s.c., F(3,42)=3.36, p<0.05)?
Answer: Its value is “decreased intravenous nicotine self-administration in a dose-dependent manner”.

Question: What about the “nicotine self-administration vs saline vehicle” value ([1]; lower doses 0.3 and 1 mg/kg s.c.) of the same compound?
Answer: Its value is “did not produce significant decreases; also recorded: did not produce significant effects”.

Question: What about the Ki (α7 nAChR) of the same compound?
Answer: Its Ki is 580 nM.

Question: What about the Ki (α3β4 nAChR) of the same compound?
Answer: Its Ki is 650 nM.

Question: And the Ki (α4β2 nAChR)?
Answer: The Ki was 0.049 nM.

Question: What about the “number of targets "hit" (more than 50% inhibition of binding)” value [2, 3] of the same compound?
Answer: Its value is 9.

Question: And the “number of targets "miss" (less than 50% inhibition of binding)” value [2, 3]?
Answer: Its value is 32.

Question: What about the “binding affinity for α4β2 nAChRs relative to the 9 hit targets” value ([2]; Ki from secondary binding assays) of the same compound?
Answer: Its value is “at least 3,000 times”.

Question: What about the “primary binding result at 5-HT3 receptors” value (5-HT3 receptors) of the same compound?
Answer: Its value is “not a “hit””.
